The source of these data is PubChem BioAssay (NCI).

The structures appear in SMILES notation.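 Briefly, cells in 96-well plates were exposed to five compound concentrations for 48 h, and endpoints were estimated by linear interpolation. TGI marks complete inhibition of growth.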

Among the test systems are SR leukemia; MDA-N; COLO 205 colon; UACC-257 melanoma; SNB-75 CNS; HCC-2998 colon; RXF 393 renal; MDA-MB-435; EKVX NSCLC; NCI-H522 lung; NCI-H226 lung; KM12 colon; RPMI-8226 leukemia; PC-3 prostate; DU-145 prostate; HT29 colon; NCI-H460 lung; MOLT-4 leukemia; SK-OV-3 ovarian.
Holding throughout (test): NCI-60 cell line screen, 48 h

Turning to `CC(C)(C)OC(=O)N1CCCC1C(=O)NC(c1ccccc1)c1ccccc1` (configuration not stated), the TGI in the assay on SR leukemia, in the assay with MDA-N, in the assay with COLO 205 colon, in the assay with UACC-257 melanoma, in the assay on SNB-75 CNS and with HCC-2998 colon was more than 100 µM throughout. The TGI with RXF 393 renal, in the assay with MDA-MB-435, in the assay with EKVX NSCLC, in the assay on NCI-H522 lung, with NCI-H226 lung and with KM12 colon was more than 100 µM throughout. Besides, the TGI in the assay on RPMI-8226 leukemia, with PC-3 prostate, with DU-145 prostate, with HT29 colon, with NCI-H460 lung and in the assay with MOLT-4 leukemia was more than 100 µM in each case. This compound had a TGI in the assay with SK-OV-3 ovarian of more than 100 µM.

For the compound `COc1cc(OC)c2c(=O)c3cccc(C)c3n(C)c2c1`, the TGI in the assay with SR leukemia, in the assay on MDA-N, in the assay on COLO 205 colon, in the assay with UACC-257 melanoma, with SNB-75 CNS and in the assay on HCC-2998 colon was more than 100 µM throughout. Moreover, the TGI with RXF 393 renal, with MDA-MB-435, in the assay with EKVX NSCLC, in the assay with NCI-H522 lung, in the assay with NCI-H226 lung and in the assay with KM12 colon was more than 100 µM throughout. The TGI in the assay with RPMI-8226 leukemia was 58.9 µM; in the assay with PC-3 prostate, more than 100 µM; in the assay with DU-145 prostate, more than 100 µM; in the assay on HT29 colon, more than 100 µM; in the assay with NCI-H460 lung, more than 100 µM; in the assay with MOLT-4 leukemia, more than 100 µM. Moreover, the TGI with SK-OV-3 ovarian is more than 100 µM.

For `Cc1[nH]c(-c2ccccc2)c2nc(N(C)C)oc(=O)c12`, the TGI in the assay with SR leukemia, in the assay on MDA-N, in the assay on COLO 205 colon, in the assay with UACC-257 melanoma, with SNB-75 CNS and in the assay with HCC-2998 colon was more than 100 µM each time. Moreover, the TGI in the assay with RXF 393 renal, with MDA-MB-435, with EKVX NSCLC, in the assay on NCI-H522 lung, in the assay with NCI-H226 lung and with KM12 colon was more than 100 µM in each case. Also, the TGI in the assay on RPMI-8226 leukemia, in the assay with PC-3 prostate, in the assay on DU-145 prostate, with HT29 colon, in the assay with NCI-H460 lung and in the assay with MOLT-4 leukemia was more than 100 µM each time. Moreover, the TGI in the assay with SK-OV-3 ovarian was more than 100 µM.

In the case of `O=C1NC(N/N=C\c2ccccc2)=N/C1=C/c1ccccc1`, the TGI with SR leukemia was 53.9 µM; in the assay with MDA-N, more than 100 µM; in the assay with COLO 205 colon it was more than 100 µM; in the assay with UACC-257 melanoma, more than 100 µM; in the assay on SNB-75 CNS it was 63.2 µM; in the assay on HCC-2998 colon, 40 µM. The TGI with RXF 393 renal was 73.1 µM; in the assay on MDA-MB-435 it was more than 100 µM; in the assay on EKVX NSCLC, 74.5 µM; in the assay with NCI-H522 lung it was 87 µM; in the assay with NCI-H226 lung, 50.2 µM; with KM12 colon, more than 100 µM. Further, the TGI in the assay on RPMI-8226 leukemia was more than 100 µM; with PC-3 prostate it was 98.4 µM; in the assay on DU-145 prostate it was 78.8 µM; in the assay on HT29 colon, more than 100 µM; in the assay with NCI-H460 lung, more than 100 µM; in the assay with MOLT-4 leukemia it was 50 µM. The compound also returned a TGI in the assay with SK-OV-3 ovarian of more than 100 µM.

`CC(C)[Si]1(C(C)C)OCC2OC(n3ccc(=O)[nH]c3=O)C([Se]c3ccccc3)C2O[Si](C(C)C)(C(C)C)O1` (configuration not stated): the TGI came to 27.1 µM in the assay on SR leukemia; 12.7 µM with MDA-N; 16.6 µM with COLO 205 colon; 13.9 µM in the assay with UACC-257 melanoma; 2.42 µM in the assay with SNB-75 CNS; 3 µM in the assay with HCC-2998 colon. Moreover, the TGI in the assay on RXF 393 renal was 9.65 µM; in the assay on MDA-MB-435 it was 17.3 µM; with EKVX NSCLC, 17.5 µM; in the assay with NCI-H522 lung it was 4.36 µM; with NCI-H226 lung, 3.88 µM; in the assay with KM12 colon, 6.62 µM. The TGI is 10.9 µM in the assay with RPMI-8226 leukemia; 11.9 µM in the assay with PC-3 prostate; 24.7 µM with DU-145 prostate; 3.99 µM in the assay on HT29 colon; 3.89 µM in the assay with NCI-H460 lung; more than 22.9 µM in the assay on MOLT-4 leukemia. The compound also displayed a TGI in the assay on SK-OV-3 ovarian of 31.2 µM.

Take `CN=c1sc2nc(C#N)c(C#N)nc2n1C`: the TGI with SR leukemia was more than 79.6 µM; in the assay with MDA-N, more than 58.3 µM; in the assay on COLO 205 colon it was 32.1 µM; in the assay with UACC-257 melanoma, more than 100 µM; in the assay with SNB-75 CNS it was 51.4 µM; with HCC-2998 colon it was 55.8 µM. The TGI with RXF 393 renal is 40.5 µM; with MDA-MB-435 it was 52.1 µM; in the assay with EKVX NSCLC, 73.8 µM; in the assay on NCI-H522 lung, 31.5 µM; in the assay on NCI-H226 lung, 38.8 µM; in the assay with KM12 colon, more than 67.8 µM. Moreover, the TGI in the assay with RPMI-8226 leukemia was more than 84.9 µM; in the assay with PC-3 prostate, more than 100 µM; in the assay with DU-145 prostate it was more than 85.4 µM; in the assay with HT29 colon it was 26 µM; in the assay on NCI-H460 lung, 35.7 µM; in the assay with MOLT-4 leukemia it was more than 100 µM. This compound displayed a TGI with SK-OV-3 ovarian of 49.2 µM.

As for `O=C1NC2(CCNCC2)Oc2ccccc21`, the TGI with SR leukemia, in the assay with MDA-N, with COLO 205 colon, with UACC-257 melanoma, in the assay on SNB-75 CNS and in the assay on HCC-2998 colon was more than 100 µM in each case. The TGI with RXF 393 renal, in the assay on MDA-MB-435, with EKVX NSCLC, in the assay with NCI-H522 lung, in the assay with NCI-H226 lung and with KM12 colon was more than 100 µM in each case. The TGI with RPMI-8226 leukemia, in the assay with PC-3 prostate, in the assay on DU-145 prostate, in the assay on HT29 colon, in the assay with NCI-H460 lung and in the assay on MOLT-4 leukemia was more than 100 µM each time. This compound also came in with a TGI in the assay with SK-OV-3 ovarian of more than 100 µM.

With `O=c1[nH][nH]c(=O)c2c1ccc1oc3ccccc3c12`, the TGI with SR leukemia, in the assay with MDA-N, in the assay with COLO 205 colon, with UACC-257 melanoma, in the assay on SNB-75 CNS and with HCC-2998 colon was more than 100 µM each time. The TGI in the assay with RXF 393 renal, in the assay on MDA-MB-435, in the assay on EKVX NSCLC, in the assay with NCI-H522 lung, with NCI-H226 lung and in the assay with KM12 colon was more than 100 µM each time. The TGI in the assay with RPMI-8226 leukemia, with PC-3 prostate, in the assay on DU-145 prostate, in the assay on HT29 colon, in the assay with NCI-H460 lung and with MOLT-4 leukemia was more than 100 µM throughout. The compound further gave a TGI in the assay with SK-OV-3 ovarian of more than 100 µM.
